Measured values taken from patent US5750531A, “Pyrimidine derivatives and processes for the preparation thereof” (Yuhan Corporation, priority 1994, dated 1998).
Structures can show the parent of a compound that is named as a salt.

How the values were obtained:
[1] = molecular target: proton pump(H^+ /K^+ ATPase); test: Inhibition of proton pump(H^+ /K^+ ATPase) activity; assay type: biochemical; settings: pH 6.0, 37° C., 30 minutes preincubation and 30 minutes reaction; read-out: IC50 Test compound
In short: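 Enzyme was preincubated with compound at five concentrations for 30 min at 37° C in Tris-HCl pH 6.0 with Mg2+, K+ and NH4Cl. Reaction ran 30 min at 37° C with ATP and was stopped with trichloroacetic acid. K+-stimulated inorganic phosphate release gave IC50 by Litchfield-Wilcoxon.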

gastric secretion = test: Inhibition of gastric secretion (pylorus ligation, Shay method); assay type: in vivo, Male Sprague-Dawley rats; settings: 20 mg/kg intraduodenally, 5 hours; for Rel. Conc.: acid concentration relative to omeprazole; for Relative Acid Output: acid output relative to omeprazole; for Rel. Vol.: gastric juice volume relative to omeprazole
In short: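 Rats under ether anaesthesia had the pylorus ligated, and the stomach was removed 5 h later. Gastric juice was centrifuged at 1,000 g, and its volume and acidity were measured. Relative volume, relative acid concentration and relative acid output […] were then calculated.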

H^+ /K^+ -ATPase = test: Reversibility Test (Dilution and Washout method, gastric vesicles); assay type: biochemical; settings: compound 50 μM
Experimental: Test 3. Reversibility Test
Gastric vesicles were prepared by the same method as in Experiment 4-1 of WO 94/14795. The inhibition mechanism of proton pump activity by the present invention compound was tested in accordance with the so-called Dilution and Washout method [see e.g., D. J. Keeling, et al., Biochemical Pharmacology, 42(1), 123-130(1991)].
Namely, test tubes were divided into two group, Groups 1 and 2. Each group was divided into four subgroups. 90 μl of 5 mM Pipes/Tris buffer(pH 7.4) and 10 μl of DMSO were added to subgroups 1 and 2 of each group. 90 μl of 5 mM Pipes/Tris buffer(pH 7.4) and 10 μl of the compound prepared in Example 43(50 μM) were added to subgroups 3 and 4 of each group. To all two groups, was added 100 μl of lyophilized vesicles at the concentration of 100 μg protein/ml and then preincubated at 37° C. for 15 minutes.
2 mM MgCl2 was added to subgroups 1 and 3 of Group 1. 2 mM MgCl2 and 10 mM KCl were added to subgroups 2 and 4 of Group 1. 3 mM ATP was added to all subgroups of Group 1 until the final volume became 500 μl. After incubation for 30 minutes, the inhibition of H^+ /K^+ -ATPase activity by the test compound was measured.
After preincubation as described above, each subgroup of Group 2 was diluted with 50-fold volume of 5 mM Pipes/Tris buffer(pH7.4) and then centrifuged for 60 minutes by means of Beckman ultracentrifuge(Model L8-80). The supernatant was discarded and washed out by 10 ml of 5 mM Pipes/Tris buffer(ph 7.4). The resulting pellet was suspended with 5 mM Pipes/Tris buffer (pH7.4) until the volume became the same as the preincubation volume.
Thereafter, in accordance with the treatment to Group 1, each subgroup of Group 2 was treated with 2 mM MgCl2, 10 mM KCl and 3 mM ATP. And the final volume of each subgroup of Group 2 was made to be 500 μl.
And it was further measured in accordance with the same procedures as above, except the compound prepared in Example 75 was used as a test compound.

proton pump = settings: in words, background; cited from earlier work

SMILES	IC50 [1] [nM]	inhibition of H^+ /K^+ ATPase activity, after Dilution & Washout (H^+ /K^+ -ATPase) [%]	inhibition of H^+ /K^+ ATPase activity, before Dilution & Washout (H^+ /K^+ -ATPase) [%]	Rel. Conc. (gastric secretion)	Relative Acid Output (gastric secretion)	Rel. Vol. (gastric secretion)	reversibility of proton pump inhibition (proton pump)
Cc1nc(N2CCc3ccccc3C2)nc(Nc2ccc(F)cc2)c1C.Cl [Example 75, 5,6-dimethyl-4-(4-fluorophenylamino)-2-(1,2,3,4-tetrahydroisoquinolin-2-yl)pyrimidine hydrochloride]	1200	15	66.6	1.62	1.20	1.3	–
COc1ccc2[nH]c([S+]([O-])Cc3ncc(C)c(OC)c3C)nc2c1 (stereo not shown) [Omeprazole, omeprazole, reference compound]	–	–	–	–	–	–	irreversible
Cc1cc(F)ccc1Nc1nc2c(c(N3CCc4ccccc4C3C)n1)CCCC2.Cl (stereo not shown) [Example 32, 2-(2-methyl-4-fluorophenylamino)-4-(1-methyl-1,2,3,4-tetrahydroisoquinolin-2-yl)-5,6,7,8-tetrahydroquinazoline hydrochloride]	1200	–	–	0.97	0.91	1.03	–
CN(c1ccccc1)c1nc2c(c(N3CCc4ccccc4C3)n1)CCCC2.Cl [Example 50, 2-(N-methylphenylamino)-4-(1,2,3,4-tetrahydroisoquinolin-2-yl)-5,6,7,8-tetrahydroquinazoline hydrochloride]	~16900	–	–	0.29	0.66	0.72	–

Now from value to compound, other results behind:

IC50 [1] [nM]	inhibition of H^+ /K^+ ATPase activity, after Dilution & Washout (H^+ /K^+ -ATPase) [%]	inhibition of H^+ /K^+ ATPase activity, before Dilution & Washout (H^+ /K^+ -ATPase) [%]	SMILES	Rel. Conc. (gastric secretion)	Relative Acid Output (gastric secretion)	Rel. Vol. (gastric secretion)	reversibility of proton pump inhibition (proton pump)
500	6	62	Cc1nc(N(C)c2ccccc2)nc(N2CCc3ccccc3C2)c1C.Cl [Example 43, 5,6-dimethyl-2-(N-methylphenylamino)-4-(1,2,3,4-tetrahydroisoquinolin-2-yl)pyrimidine hydrochloride]	0.59	0.82	0.7	–
600	–	–	Cc1ccccc1Nc1nc(C)c(C)c(N2CCc3ccccc3C2C)n1.Cl (stereo not shown) [Example 24, 5,6-Dimethyl-2-(2-methylphenylamino)-4-(1-methyl-1,2,3,4-tetrahydroisoquinolin-2-yl)pyrimidine hydrochloride]	1.03	1.01	1	–
800	–	–	CCc1nc(Nc2ccc(F)cc2C)nc(N2CCc3ccccc3C2C)c1C.Cl (stereo not shown) [Example 26, 5-methyl-6-ethyl-2-(2-methyl-4-fluorophenylamino)-4-(1-methyl-1,2,3,4-tetrahydroisoquinolin-2-yl)pyrimidine hydrochloride]	0.53	0.73	0.6	–
900	–	–	Cc1cc(N2CCc3ccccc3C2C)nc(Nc2ccc(F)cc2C)n1.Cl (stereo not shown) [Example 2, 6-methyl-2-(2-methyl-4-fluorophenylamino)-4-(1-methyl-1,2,3,4-tetrahydroisoquinolin-2-yl)pyrimidine hydrochloride]	0.8	0.89	0.92	–
400	–	–	Cc1cc(F)ccc1Nc1nc(N2CCc3ccccc3C2C)nc2c1CCC2 (stereo not shown) [Example 81, hydrochloride]	0.47	0.68	0.56	–
